Measurements taken from US12295936B2, “Immunomodulating urea azalides” (Zoetis Services LLC, priority 2020, dated 2025).
Like-named read-outs stand apart in the source and are kept apart here.

Key:
IL-6 = assay: LPS-stimulated whole bovine blood assay, MSD cytokine detection; format: cell-based; conditions: read-out: IL-6 (IC50 μM)
Excerpt: In order to correlate RNA sequencing data to cytokine changes the whole blood assay was utilized. […] The enhancement result represents an overall stimulation of cytokine levels due to cellular stress or potential toxicity with increasing concentrations of the compound, representing a typical bell shape response curve for immunomodulatory activity.

TNF-α = assay: as above; format: cell-based; conditions: Bos taurus, read-out: TNF-α (IC50 μM)
[1] = tested on: BRD pathogens, M. haemolytica and P. multocida; assay: MIC screening panel of BRD pathogens (antibacterial / non-antibacterial); conditions: read-out: antibacterial / non-antibacterial (MIC for the BRD pathogens)
IL-1β = assay: LPS-stimulated whole bovine blood assay, MSD cytokine detection; format: cell-based; conditions: overstimulation of IL-1β, LPS-stimulated bovine whole blood
P. multocida 46572 = assay: In vivo mouse lung infection challenge model (murine efficacy); design: species or system CD-1 female mice; conditions: 20 mg/kg subcutaneous, P. multocida challenge; harmonized against the comparative vehicle survival rate
Experimental: The challenge organism was P. multocida 46572. Target challenge concentration was 5×10^2 CFU/mouse. Isolated colonies from overnight growth (37° C. with 5% CO2) on trypticase soy agar (TSA II) blood plates were transferred to room temperature Brain Heart Infusion Broth (BHIB). The broth culture was incubated 3.5-4 hours to approximately mid-log phase of growth, as measured by forward light scatter at 600 nm (OD600, 0.200). The culture was centrifuged to collect the bacterial pellet. The pellet was re-suspended in BHIB and adjusted to provide an approximate concentration of 2.7 log^10 colony forming units (CFU) in 0.04 mL at the highest concentration. The challenge inoculum concentration was confirmed by serial dilutions of the inoculum for CFU enumeration. On Day −5, CD-1 female mice were received. Mice were given standard rodent diet and water ad libitum. On Day 0, bacterial inoculum (0.04 mL) was administered to each mouse (n=36) intranasally. Compounds of the invention were dosed at 20 mg/kg (0.1 mL) in a buffered (˜pH 5.4) propylene glycol, monothioglycerol and water solution by subcutaneous injection. Animals were observed from Days 1-10. The study was terminated on Day 10. In addition, some treatment groups were sampled at 6, 24, and 48 hours post bacterial challenge for RNA sequence analysis of lung tissue.
The murine efficacy model (P. multocida challenge) was optimized, and the treatment group size was powered to be able to observe statistically significant improvement of survival to expected ranges for immunomodulatory compounds. The experimental design was a randomized complete block design. Mice were individually identified and treatment groups comingled within a cage, with every treatment group equally represented across cages. Mortality was the primary variable. Mortality data was analyzed using a generalized mixed model with fixed effect of treatment and random effect of block. Survival time was also analyzed using the SAS PHREG (survival analysis) procedure to examine whether there were significant differences between treatment groups and the control group. Numerous compounds of the invention and M9 (positive control) were tested in this model at a dose of 20 mg/kg. Typical percent survival for no treatment control is in the range of 0-20% based on study to study variation in challenge inoculum and rate of infection. […] Mouse survival for M9 was about 90-100%, further supporting its antibacterial properties against the bacterial strain (Table 3). Survival values presented are harmonized against the comparative vehicle survival rate.

[2] = Bos taurus, LPS-stimulated bovine whole blood
[3] = LPS-stimulated bovine whole blood

Row | Compound | IC50 (IL-6; [2]) [µM] | IC50 (TNF-α; [3]) [µM] | MIC [1] [µg/mL] | IL-1β OS of LPS (IL-1β) [µM] | Mouse Murine Percent Survival (P. multocida 46572) [%] | IC50 (IL-6; [3]) [µM] | IC50 (IL-6; Bos taurus) [µM] | IC50 (TNF-α) [µM]
1 | CCCNC[C@]1(O)[C@H](C)O[C@@H](O[C@H]2[C@H](C)[C@@H](O[C@@H]3O[C@H](C)C[C@H](N(C)C(=O)N(C)c4ccc(C(F)(F)F)cc4)[C@H]3O)[C@](C)(O)C[C@@H](C)CN(C)[C@H](C)[C@@H](O)[C@](C)(O)[C@@H](CC)OC(=O)[C@@H]2C)C[C@@]1(C)OC [Example H-100, 1-((2S,3R,4S,6R)-2-(((2R,3S,4R,5R,8R,10R,11R,12S,13S,14R)-2-ethyl-3,4,10-trihydroxy-13-(((2R,4R,5S,6S)-5-hydroxy-4-methoxy-4,6-dimethyl-5-((propylamino)methyl)tetrahydro-2H-pyran-2-yl)oxy)-3,5,6,8,10,12,14-heptamethyl-15-oxo-1-oxa-6-azacyclopentadecan-11-yl)oxy)-3-hydroxy-6-methyltetrahydro-2H-pyran-4-yl)-1,3-dimethyl-3-(4-(trifluoromethyl)phenyl)urea] | 10 | 6 | > 64 | 16 | 19 |  |  | 
2 | CC[C@H]1OC(=O)[C@H](C)[C@@H](O[C@H]2C[C@@](C)(OC)[C@](O)(CN3CCN(C)CC3)[C@H](C)O2)[C@H](C)[C@@H](O[C@@H]2O[C@H](C)C[C@H](N(C)C(=O)NC(C)(C)C)[C@H]2O)[C@](C)(O)C[C@@H](C)CN[C@H](C)[C@@H](O)[C@]1(C)O [Example J-3, 3-(tert-butyl)-1-((2S,3R,4S,6R)-2-(((2R,3S,4R,5R,8R,10R,11R,12S,13S,14R)-2-ethyl-3,4,10-trihydroxy-13-(((2R,4R,5S,6S)-5-hydroxy-4-methoxy-4,6-dimethyl-5-((4-methylpiperazin-1-yl)methyl)tetrahydro-2H-pyran-2-yl)oxy)-3,5,8,10,12,14-hexamethyl-15-oxo-1-oxa-6-azacyclopentadecan-11-yl)oxy)-3-hydroxy-6-methyltetrahydro-2H-pyran-4-yl)-1-methylurea] | 225 | 200 |  | 200 | 25 |  |  | 
3 | CCCNC[C@]1(O)[C@H](C)O[C@@H](O[C@H]2[C@H](C)[C@@H](O[C@@H]3O[C@H](C)C[C@H](N(C)C(=O)Nc4cccnc4)[C@H]3O)[C@](C)(O)C[C@@H](C)CN[C@H](C)[C@@H](O)[C@](C)(O)[C@@H](CC)OC(=O)[C@@H]2C)C[C@@]1(C)OC [Example H-72, 1-((2S,3R,4S,6R)-2-(((2R,3S,4R,5R,8R,10R,11R,12S,13S,14R)-2-ethyl-3,4,10-trihydroxy-13-(((2R,4R,5S,6S)-5-hydroxy-4-methoxy-4,6-dimethyl-5-((propylamino)methyl)tetrahydro-2H-pyran-2-yl)oxy)-3,5,8,10,12,14-hexamethyl-15-oxo-1-oxa-6-azacyclopentadecan-11-yl)oxy)-3-hydroxy-6-methyltetrahydro-2H-pyran-4-yl)-1-methyl-3-(pyridin-3-yl)urea] | > 500 | > 500 |  | >500 | 4 |  |  | 
4 | CC[C@H]1OC(=O)[C@H](C)[C@@H](O[C@H]2C[C@@](C)(OC)[C@](O)(CN3CCN(C)CC3)[C@H](C)O2)[C@H](C)[C@@H](O[C@@H]2O[C@H](C)C[C@H](N(C)C(=O)Nc3ccccc3)[C@H]2O)[C@](C)(O)C[C@@H](C)CN[C@H](C)[C@@H](O)[C@]1(C)O [Example J-7, 1-((2S,3R,4S,6R)-2-(((2R,3S,4R,5R,8R,10R,11R,12S,13S,14R)-2-ethyl-3,4,10-trihydroxy-13-(((2R,4R,5S,6S)-5-hydroxy-4-methoxy-4,6-dimethyl-5-((4-methylpiperazin-1-yl)methyl)tetrahydro-2H-pyran-2-yl)oxy)-3,5,8,10,12,14-hexamethyl-15-oxo-1-oxa-6-azacyclopentadecan-11-yl)oxy)-3-hydroxy-6-methyltetrahydro-2H-pyran-4-yl)-1-methyl-3-phenylurea] | > 500 | 200 |  | 200 | 39 |  |  | 
5 | CC[C@H]1OC(=O)[C@H](C)[C@@H](O[C@H]2C[C@@](C)(OC)[C@@H](O)[C@H](C)O2)[C@H](C)[C@@H](O[C@@H]2O[C@H](C)C[C@H](N(C)C(=O)N(C)c3ccc(C(F)(F)F)cc3)[C@H]2O)[C@](C)(O)C[C@@H](C)CN(C)[C@H](C)[C@@H](O)[C@]1(C)O [Example B-6, 1-((2S,3R,4S,6R)-2-(((2R,3S,4R,5R,8R,10R,11R,12S,13S,14R)-2-ethyl-3,4,10-trihydroxy-13-(((2R,4R,5S,6S)-5-hydroxy-4-methoxy-4,6-dimethyltetrahydro-2H-pyran-2-yl)oxy)-3,5,6,8,10,12,14-heptamethyl-15-oxo-1-oxa-6-azacyclopentadecan-11-yl)oxy)-3-hydroxy-6-methyltetrahydro-2H-pyran-4-yl)-1,3-dimethyl-3-(4-(trifluoromethyl)phenyl)urea] | 41 | 12 |  | 40 | 1 |  |  | 
6 | CC[C@H]1OC(=O)[C@H](C)[C@@H](O[C@H]2C[C@@](C)(OC)[C@@H](O)[C@H](C)O2)[C@H](C)[C@@H](O[C@@H]2O[C@H](C)C[C@H](N(C)C(=O)N(C)c3ccc(C(F)(F)F)cc3)[C@H]2O)[C@](C)(O)C[C@@H](C)CN[C@H](C)[C@@H](O)[C@]1(C)O [Example B-2, 1-((2S,3R,4S,6R)-2-(((2R,3S,4R,5R,8R,10R,11R,12S,13S,4R)-2-ethyl-3,4,10-trihydroxy-13-(((2R,4R,5S,6S)-5-hydroxy-4-methoxy-4,6-dimethyltetrahydro-2H-pyran-2-yl)oxy)-3,5,8,10,12,14-hexamethyl-15-oxo-1-oxa-6-azacyclopentadecan-11-yl)oxy)-3-hydroxy-6-methyltetrahydro-2H-pyran-4-yl)-1,3-dimethyl-3-(4-(trifluoromethyl)phenyl)urea] |  |  |  | 40 | 28 | 52 |  | 
7 | CCCNC(=O)N(C)[C@H]1C[C@@H](C)O[C@@H](O[C@@H]2[C@@H](C)[C@H](O[C@H]3C[C@@](C)(OC)[C@](O)(CNc4ccc(C(F)(F)F)cc4)[C@H](C)O3)[C@@H](C)C(=O)O[C@H](CC)[C@@](C)(O)[C@H](O)[C@@H](C)NC[C@H](C)C[C@@]2(C)O)[C@@H]1O [Example H-95, 1-((2S,3R,4S,6R)-2-(((2R,3S,4R,5R,8R,10R,11R,12S,13S,14R)-2-ethyl-3,4,10-trihydroxy-13-(((2R,4R,5S,6S)-5-hydroxy-4-methoxy-4,6-dimethyl-5-(((4-(trifluoromethyl)phenyl)amino)methyl)tetrahydro-2H-pyran-2-yl)oxy)-3,5,8,10,12,14-hexamethyl-15-oxo-1-oxa-6-azacyclopentadecan-11-yl)oxy)-3-hydroxy-6-methyltetrahydro-2H-pyran-4-yl)-1-methyl-3-propylurea] |  | 10 | > 64 | 13 | 39 |  |  | 
8 | CCCNC[C@]1(O)[C@H](C)O[C@@H](O[C@H]2[C@H](C)[C@@H](O[C@@H]3O[C@H](C)C[C@H](N(C)C(=O)Nc4cnn(C)c4)[C@H]3O)[C@](C)(O)C[C@@H](C)CN[C@H](C)[C@@H](O)[C@](C)(O)[C@@H](CC)OC(=O)[C@@H]2C)C[C@@]1(C)OC [Example H-74, 1-((2S,3R,4S,6R)-2-(((2R,3S,4R,5R,8R,10R,11R,12S,13S,14R)-2-ethyl-3,4,10-trihydroxy-13-(((2R,4R,5S,6S)-5-hydroxy-4-methoxy-4,6-dimethyl-5-((propylamino)methyl)tetrahydro-2H-pyran-2-yl)oxy)-3,5,8,10,12,14-hexamethyl-15-oxo-1-oxa-6-azacyclopentadecan-11-yl)oxy)-3-hydroxy-6-methyltetrahydro-2H-pyran-4-yl)-1-methyl-3-(1-methyl-1H-pyrazol-4-yl)urea] |  |  |  | >500 | 11 |  | > 500 | ~600
